Patent US10266823B2, “Small molecules that enhance the activity of oligonucleotides” (The University of North Carolina at Chapel Hill, priority 2014, dated 2019)

What was measured:
HeLaLuc705 cells [1] = assay: SSO623-mediated luciferase induction (splice correction), 24 well format; assay type: cell-based, human; settings: for enhancement of luciferase induction as compared to SSO alone: 2 h, 100 nM SSO623
Description: FIG. 1B. SSO Dose-response of hit compounds. Selected hits were examined for their ability to enhance splice correction by SSO623 in the HeLa Luc 705 cell system. Cells were incubated in 24 well plates with 100 nM 623 or its mismatched control (MM) for 16 h in DMEM+10% FBS, rinsed, and then treated with various concentrations of the hit compounds, or with 100 uM Retro-1, for 2 h. The cells were then rinsed and incubation continued for an additional 4 h in DMEM+10% FBS. Cells were rinsed twice in PBS and luciferase activity (RLU) and cell protein determined. Means+/−SE. N=3. Mismatched controls were at baseline level on this scale and are not shown.
(§1) Luciferase induction dose-response curves in a 24 well plate format with normalization on cell protein were performed as previously described (Alam, M. R. et al., Nucleic Acids Res, 36, 2764-2776 (2008), Ming, X., et al., Nucleic Acids Res, 38, 6567-6576 (2010)). Splicing modulation of the EGFP654 reporter and of endogenous Bcl-X were monitored by RT-PCR using appropriate primers. Evaluation of hit compound effects on antisense actions involved ‘knockdown’ of MDR1 pre-mRNA and its protein product in multi-drug resistant mouse 3T3 cells. Cell surface expression of P-glycoprotein was monitored using an Alexa-488 conjugated monoclonal antibody and flow cytometry as previously described (Ming, X. et al., Nucleic Acids Res, 41, 3673-3687 (2013), Fisher, M., et al., Nucleic Acids Res, 35, 1064-1074 (2007)). Evaluation of effects on siRNA utilized a HeLa cell line stably transfected with an EGFP expression cassette. Cholesterol-conjugated siRNAs were used to attain sufficient uptake. Cells were incubated with the siEGFP or control siRNA, rinsed, and then briefly exposed to hit compound. After further incubation expression of EGFP was monitored by flow cytometry. In cases where treatment with Lipofectamine 2000 was used as a positive control, the manufacturer's protocol was followed.

A375Luc705 cells = assay: Luciferase induction by RGD-SSO-albumin conjugate; assay type: cell-based, human; settings: 2 h, 100 nM RGD-SSO-albumin conjugate
Description: FIG. 2. Effects on Receptor-Targeted oligonucleotides. A375Luc705 cells were treated with 100 nM RGD-SSO-albumin conjugate for 16 h and subsequently treated with Retro-1 (100 uM) or 7938 (5, 10 uM) for 2 h. After removal of the compound the cells were incubated for a further 24 h and then assayed for luciferase and cell protein. (A) Control; (B) RGD-SSO conjugate only; (C) RGD-SSO conjugate plus Retrol; (D) RGD-SSO conjugate plus 5 uM 7938; (E) RGD-SSO conjugate plus 10 uM 7938. Means+/−SE. N=3.
Our laboratory has pursued the use of ligand-oligonucleotide conjugates to attain receptor-selective targeted delivery (Alam, M. R., et al., Bioconjugate chemistry, 22, 1673-1681 (2011), Ming, X., et al., Biomaterials, 34, 7939-7949 (2013), Nakagawa, O., et al., Bioconjugate chemistry, 25, 165-170 (2014)). Thus we were interested in whether our compounds would affect oligonucleotides that enter cells by receptor-mediated endocytosis. We used a previously described (Ming, X., et al., Biomaterials, 34, 7939-7949 (2013)) multivalent conjugate comprised of several RGD peptide-conjugated morpholino SSOs further conjugated via bioreversible links to serum albumin as a carrier. […] We examined luciferase induction in αvβ3-expressing A375 melanoma cells that contain the Luc705 expression cassette. […] Thus 7938 can substantially enhance effects of receptor targeted oligonucleotide conjugates. […]

[2] = tested on: HeLa cell line stably transfected with an EGFP expression cassette; assay: Cholesterol-conjugated siEGFP reduction of EGFP, flow cytometry; assay type: cell-based, human; settings: cholesterol-conjugated siRNA
Description: as §1

EGFP654 mice = assay: Acute toxicity, blood chemistry parameters in EGFP654 mice; assay type: in vivo, mouse; settings: 7.5 mg/kg i.v.; data not shown
Excerpt: (§2) All animal procedures were in accordance with guidelines of the UNC Laboratory Animal Medicine Department and with federal guidelines. The EGFP654 transgenic mouse has been described previously (Sazani, P., et al., Nature biotechnology, 20, 1228-1233 (2002), Roberts, J., et al., Mol Ther, 14, 471-475 (2006)). A reporter gene comprised of the EGFP coding sequence is interrupted by an aberrantly spliced intron. Delivery of an appropriate SSO to the nucleus of tissue cells will correct splicing leading the expression of normal EGFP mRNA and protein. EGFP654 mice were administered 25 mg/kg SS0623 or mis-matched oligonucleotide in PBS by intra-peritoneal injection on two consecutive days. One day later the mice received 7.5 mg/kg UNC10217938A intravenously in a diluent of 5% PEG400, or diluent only. After 24 h the mice were euthanized and cardiac blood and tissues samples collected. Tissues for fluorescence microscopy to visualize EGFP were fixed in cold 1.5% paraformaldehyde in PBS and then processed for cryosectioning (Sazani, P., et al., Nature biotechnology, 20, 1228-1233 (2002)). Tissues for RNA analysis were collected from mice euthanized at 4 h and ere quick frozen on dry ice. All procedures involving live animals were conducted by the UNC Animal Studies Core facility. Blood samples were analyzed by the UNC Animal Clinical Chemistry Core facility.

[3] = tested on: P-glycoprotein multidrug transporter in multi-drug resistant 3T3 cells; assay: Antisense knockdown of P-glycoprotein (anti-MDR1 ASO), flow cytometry; assay type: cell-based, mouse
Description: as §1, with “followed. […]” for “followed.”

HeLaLuc705 cells [4] = assay: High throughput screen, SSO623 luciferase induction, 384 well; assay type: cell-based, human; settings: library compounds at 25 uM, 5 h; 100 nM SSO623
Description: Our high throughput screen (HTS) utilized HeLaLuc705 cells. Delivery of an appropriate SSO to the nucleus corrects splicing and induces luciferase expression thus providing an easily interpreted positive readout (Iam, M. R. et al., Nucleic Acids Res, 36, 2764-2776 (2008), Ming, X., et al., Nucleic Acids Res, 38, 6567-6576 (2010)). Cells were trypsinized, rinsed, and suspended in Opti-MEM at 300,000 cells/ml; SSO623 was added to a final concentration of 100 nM. No lipid or polymer transfection agents were used in these assays. Opti-MEM (15 ul) followed by cell suspension (20 ul) was added to wells of 384 well plates. Cells were allowed to attach and incubate with the SSO for 16 h. During this 16 h period a set of positive control wells received chloroquine to a final concentration of 300 uM while a set of negative control wells received diluent. After the initial incubation the remaining wells received library compounds to a final concentration of 25 uM. Incubation with library compounds was at 37 C for 5 h at which time the cells were harvested and analyzed for luciferase induction. Library compounds that produced an induction of 50% that of the positive controls were considered positive in this assay and were further analyzed. Dose-response curves were developed comparing SSO623 with a mis-matched oligonucleotide. […]

HeLa cells = assay: Live cell confocal microscopy: subcellular distribution of TAMRA oligonucleotide and organelle markers; assay type: cell-based, human
Description: FIG. 3A: Effects on Cell Morphology and Subcellular Distribution of Oligonucleotide: Quantitation of Colocalization. HeLa cells were transfected with baculovirus expression vectors for GFP-Rab7a (late endosome marker) or GFP-LAMP-1 (lysosome marker). The cells were then incubated with 300 nM SSO 623-TAMRA for 16 h. Cells were then treated with 10 uM 7938 for 1 h or maintained as controls. Live cells were imaged using a confocal microscope with environmental stage. Co-localization of GFP and TAMRA oligonucleotide was quantitated using the Image J Coloc2 plug-in and expressed as the Manders correlation coefficient. Individual cells were analyzed and the data summated. Means and standard errors shown. N=9-20. ** represents p<0.002 compared to Rab 7 control.
FIG. 3B. Effects on Cell Morphology and Subcellular Distribution of Oligonucleotide: Nuclear Accumulation. TAMRA fluorescence intensity in the nucleus was quantitated using Image J. Means and standard errors shown. N=55-70. *** represents p<0.001 compared to Control.
Quantitative live cell confocal microscopy (Dunn, K. W., et al., Am J Physiol Cell Physiol, 300, C723-742 (2011)) was performed to examine the subcellular distribution of fluorescent oligonucleotide or of certain markers for endomembrane compartments. Cells (HeLa) were transfected with baculovirus expression vectors for GFP chimeras of marker proteins for several endomembrane compartments. The day following transfection, cells were incubated for 4 h with 300 nM TAMRA conjugated SSO 623 in OptiMEM after which the cells were washed and incubated in DMEM medium with 1% FBS. In some cases hit compounds were added during or after the incubation. Cells were imaged on an Olympus FV1000 MPE laser scanning confocal microscope with environmental chamber to maintain 37 C, 40% humidity and 5% C02. We used 488 nm (GFP) and 559 nm (TAMRA) as laser lines, and images were collected with a 60× oil immersion lens. Quantitation of co-localization of oligonucleotide and marker proteins utilized the Coloc2 plug-in in Image J. In some cases GFP markers for organelles were examined in cells previously fixed in 4% formaldehyde in PBS.

C57BL/6 mice = assay: 7 day toxicity study; assay type: in vivo; settings: doses that overlap those of FIG. 4, data not shown
EGFP654 transgenic mouse = assay: In vivo splice correction in EGFP654 transgenic mouse
Excerpt: FIG. 4. In vivo effects: Quantitation of RT-PCR. Gel bands were quantitated using a Typhoon imaging system. Percent of switching is the ratio of lower band to upper band ×100. *** difference from PBS control significant at the 0.001 level.
as §2
In the EGFP654 transgenic line a reporter gene comprised of the EGFP coding sequence is interrupted by an aberrantly spliced intron. Effective delivery of an appropriate SSO to the nucleus of tissue cells will correct splicing leading to expression of normal EGFP mRNA and protein in that tissue. We visualized EGFP expression by fluorescence microscopy of tissue cryosections and evaluated correction of EGFP pre-mRNA splicing by RT-PCR. […]

[5] = 10 uM, 1 h, Manders correlation coefficient

CCC(=O)N1CC(=O)Nc2ccc(Br)cc2C1c1ccccc1 (stereo not shown) [Retro-1, reference compound]
enhancement of luciferase induction as compared to SSO alone (HeLaLuc705 cells [1]; 100 uM compound): 11 fold | ability of the conjugate to induce luciferase (A375Luc705 cells; 100 uM compound): increased

CCOC(=O)Nc1cc(NCCN(C)C)c2nc(-c3ccccc3)c(-c3ccccc3)nc2n1 [compound 7938]
ability of siEGFP to reduce levels of EGFP [2]: enhanced | acute toxicity (blood chemistry parameters) (EGFP654 mice): did not result in acute toxicity | amount of ASO at which strong effects were observed ([3]; ASO varied, constant concentration of compound): 5 nM | enhancement of ASO action (P-glycoprotein knockdown) ([3]; anti-MDR1 ASO, data not shown): strongly enhanced | enhancement of luciferase induction as compared to SSO alone (HeLaLuc705 cells [1]; 10 uM compound): 60 fold | enhancement of luciferase induction as compared to SSO alone (HeLaLuc705 cells [1]; 20 uM compound): 220 fold | amount of SSO at which strong induction effects were observed (HeLaLuc705 cells [1]; SSO varied, constant concentration of compound): 3 nM | activity in high throughput screen (HeLaLuc705 cells [4]): active | co-localization of TAMRA-oligonucleotide with late endosome marker Rab7 (HeLa cells; [5]): major reduction | co-localization of TAMRA-oligonucleotide with lysosomal marker LAMP-1 (HeLa cells; [5]): little effect | accumulation of Tamra-oligonucleotide in the nucleus (HeLa cells; TAMRA fluorescence intensity in the nucleus): increase | release of fluorescent dextran from endosomes (HeLa cells; dextran of molecular mass similar to an oligonucleotide, data not shown): partially released | ability of the conjugate to induce luciferase (A375Luc705 cells; 5 or 10 uM compound, compared with 100 uM Retro-1): far larger impact | toxicity (C57BL/6 mice): no significant evidence of toxicity | EGFP fluorescence in liver, kidney and heart (EGFP654 transgenic mouse; SS0623 25 mg/kg i.p. on two days, then 7.5 mg/kg compound i.v., 24 h): distinct increases | correction of EGFP pre-mRNA splicing by RT-PCR in liver, kidney and heart (EGFP654 transgenic mouse; SS0623 followed by compound, RNA at 4 h): correctly spliced EGFP message was found | EGFP induction in skeletal muscle (EGFP654 transgenic mouse; SS0623 followed by compound, data not shown): not strongly affected
